Assay [1] has as its target T1, Sentrin-specific protease 8 (Homo sapiens, UniProt Q96LD8).
T1 sequence (Q96LD8 whole entry): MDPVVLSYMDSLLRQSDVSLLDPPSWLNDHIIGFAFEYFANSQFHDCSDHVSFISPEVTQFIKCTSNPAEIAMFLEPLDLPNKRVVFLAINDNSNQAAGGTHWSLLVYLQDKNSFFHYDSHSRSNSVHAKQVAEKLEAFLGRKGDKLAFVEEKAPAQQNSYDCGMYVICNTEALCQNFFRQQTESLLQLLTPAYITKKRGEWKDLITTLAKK
Description: SENP8 protease inhibitors, SAR follow-up, biochemical, luminescence (AID 504501). It counts as functional.

Assay [2] has as its target T2, Sentrin-specific protease 7 (Homo sapiens, UniProt Q9BQF6).
T2 sequence (Q9BQF6 whole entry): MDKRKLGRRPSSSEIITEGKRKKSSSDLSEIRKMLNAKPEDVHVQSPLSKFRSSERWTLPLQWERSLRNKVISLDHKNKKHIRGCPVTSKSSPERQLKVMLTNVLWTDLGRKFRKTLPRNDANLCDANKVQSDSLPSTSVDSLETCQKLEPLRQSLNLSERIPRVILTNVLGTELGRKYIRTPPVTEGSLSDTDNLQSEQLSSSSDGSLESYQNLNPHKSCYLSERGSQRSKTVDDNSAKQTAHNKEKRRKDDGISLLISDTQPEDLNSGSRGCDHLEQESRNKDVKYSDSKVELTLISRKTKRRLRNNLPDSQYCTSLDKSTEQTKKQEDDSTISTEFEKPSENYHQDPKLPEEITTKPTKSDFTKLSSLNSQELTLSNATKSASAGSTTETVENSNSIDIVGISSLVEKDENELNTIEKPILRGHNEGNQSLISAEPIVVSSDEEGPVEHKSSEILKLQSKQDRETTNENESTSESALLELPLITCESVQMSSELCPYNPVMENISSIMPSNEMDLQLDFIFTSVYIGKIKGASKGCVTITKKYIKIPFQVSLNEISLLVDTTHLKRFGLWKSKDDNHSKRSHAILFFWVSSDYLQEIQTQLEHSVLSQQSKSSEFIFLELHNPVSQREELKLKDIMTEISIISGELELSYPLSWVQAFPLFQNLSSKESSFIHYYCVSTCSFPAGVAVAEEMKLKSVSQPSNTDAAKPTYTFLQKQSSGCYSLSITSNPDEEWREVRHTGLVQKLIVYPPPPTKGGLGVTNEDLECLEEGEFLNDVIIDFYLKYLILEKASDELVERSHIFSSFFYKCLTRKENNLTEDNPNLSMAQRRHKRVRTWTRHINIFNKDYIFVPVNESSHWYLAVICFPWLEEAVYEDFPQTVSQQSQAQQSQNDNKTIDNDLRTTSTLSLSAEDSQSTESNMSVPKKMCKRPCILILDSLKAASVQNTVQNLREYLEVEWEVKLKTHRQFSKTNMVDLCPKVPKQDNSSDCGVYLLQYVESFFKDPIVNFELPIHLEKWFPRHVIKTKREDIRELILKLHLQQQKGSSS
It counts as functional.

In assay [3] the target is T3, Sentrin-specific protease 6 (Homo sapiens, UniProt Q9GZR1).
T3 sequence (Q9GZR1 whole entry): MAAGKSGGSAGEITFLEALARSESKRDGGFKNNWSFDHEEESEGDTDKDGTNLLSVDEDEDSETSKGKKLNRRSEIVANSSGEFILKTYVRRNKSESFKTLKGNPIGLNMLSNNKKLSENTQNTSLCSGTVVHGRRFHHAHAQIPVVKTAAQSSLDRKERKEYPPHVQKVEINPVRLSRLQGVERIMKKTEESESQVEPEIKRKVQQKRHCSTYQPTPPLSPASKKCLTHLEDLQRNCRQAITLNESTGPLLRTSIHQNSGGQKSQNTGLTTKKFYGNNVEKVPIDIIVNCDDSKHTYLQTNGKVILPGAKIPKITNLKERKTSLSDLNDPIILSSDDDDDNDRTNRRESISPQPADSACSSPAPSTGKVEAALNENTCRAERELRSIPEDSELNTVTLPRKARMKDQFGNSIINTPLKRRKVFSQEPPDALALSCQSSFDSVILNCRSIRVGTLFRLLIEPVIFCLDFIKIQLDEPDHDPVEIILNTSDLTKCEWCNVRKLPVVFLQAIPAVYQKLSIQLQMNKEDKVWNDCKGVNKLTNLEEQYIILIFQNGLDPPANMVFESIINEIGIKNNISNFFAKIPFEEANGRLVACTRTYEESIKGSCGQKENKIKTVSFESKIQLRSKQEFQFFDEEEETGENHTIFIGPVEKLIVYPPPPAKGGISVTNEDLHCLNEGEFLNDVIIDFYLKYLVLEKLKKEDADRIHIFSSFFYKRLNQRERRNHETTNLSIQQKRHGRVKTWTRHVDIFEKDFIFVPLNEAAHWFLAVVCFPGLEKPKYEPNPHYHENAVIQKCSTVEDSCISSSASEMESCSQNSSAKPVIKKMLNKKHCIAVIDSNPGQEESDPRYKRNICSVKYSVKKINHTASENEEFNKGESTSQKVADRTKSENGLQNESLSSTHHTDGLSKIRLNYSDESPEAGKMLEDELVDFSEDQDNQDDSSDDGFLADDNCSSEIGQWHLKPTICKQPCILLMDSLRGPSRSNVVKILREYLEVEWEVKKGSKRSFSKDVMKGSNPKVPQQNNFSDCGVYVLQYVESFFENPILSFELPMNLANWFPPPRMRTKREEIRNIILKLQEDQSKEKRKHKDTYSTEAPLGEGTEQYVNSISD
Description: SAR Analysis of small molecule inhibitors of Sentrin-specific protease 6 (SENP6) using a Luminescent assay. [Related pubchem assays (depositor defined):AID2582, AID2599]. It is filed as functional.

The nature of assay [4]: cells.
For assay [5], the target named is T2, Sentrin-specific protease 7. Description: SENP7 protease inhibitors, SAR follow-up, biochemical, luminescence (AID 504497). It is filed as functional.
In assay [6] the target is T1, Sentrin-specific protease 8. It counts as functional.
In assay [7] the target is T4, Caspase-3 (Homo sapiens, UniProt P42574).
T4 sequence (P42574 whole entry): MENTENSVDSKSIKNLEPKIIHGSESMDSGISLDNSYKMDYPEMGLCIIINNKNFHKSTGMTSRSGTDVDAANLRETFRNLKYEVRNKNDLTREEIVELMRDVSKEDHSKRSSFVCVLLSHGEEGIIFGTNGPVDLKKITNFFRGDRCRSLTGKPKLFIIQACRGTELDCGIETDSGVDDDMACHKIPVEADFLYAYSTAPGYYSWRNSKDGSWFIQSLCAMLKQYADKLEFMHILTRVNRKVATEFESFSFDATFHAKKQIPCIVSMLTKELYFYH
Description: SAR Analysis of small molecule inhibitors of Sentrin-specific proteases (SENPs) using a Caspase-3 Selectivity assay. [Related pubchem assays (depositor defined):AID2540, AID2599, AID434973, AID489001]. It is filed as functional.

Assay [8] deals with T3, Sentrin-specific protease 6. It counts as functional.
Assay [9] concerns the target Oxysterols receptor LXR-beta (Homo sapiens, UniProt P55055). It is filed as functional, cell-based.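 Note: Cell-based luminescence dose-response assay of agonist activity at LXR, run as a confirmatory counterscreen to a daf-12 agonist screen; HEK293 cells with Gal4-LXR fusion and GAL4-driven luciferase reporter; agonist potency from rising luciferase signal of a Gal4-LXR reporter.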
Assay [10] deals with T4, Caspase-3. It counts as functional.
The target of the next assay is Nonstructural protein 1 (Influenza A virus, UniProt Q194T2). It counts as functional, Influenza A virus (A/California/07/2009(H1N1)).
The target in another assay is Cytochrome P450 2D6 (Homo sapiens, UniProt P10635).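 Note: CYP2D6 member of a cytochrome P450 panel assay.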
The target in a further assay is Kallikrein-7 (Homo sapiens, UniProt P49862). Description: Fluorescence Intensity-based biochemical primary high throughput dose response assay to identify activators of kallikrein-7 (K7) zymogen.
The next assay deals with T5, Aminopeptidase N (Plasmodium falciparum FcB1/Columbia, UniProt O96935).
T5 sequence (O96935 whole entry): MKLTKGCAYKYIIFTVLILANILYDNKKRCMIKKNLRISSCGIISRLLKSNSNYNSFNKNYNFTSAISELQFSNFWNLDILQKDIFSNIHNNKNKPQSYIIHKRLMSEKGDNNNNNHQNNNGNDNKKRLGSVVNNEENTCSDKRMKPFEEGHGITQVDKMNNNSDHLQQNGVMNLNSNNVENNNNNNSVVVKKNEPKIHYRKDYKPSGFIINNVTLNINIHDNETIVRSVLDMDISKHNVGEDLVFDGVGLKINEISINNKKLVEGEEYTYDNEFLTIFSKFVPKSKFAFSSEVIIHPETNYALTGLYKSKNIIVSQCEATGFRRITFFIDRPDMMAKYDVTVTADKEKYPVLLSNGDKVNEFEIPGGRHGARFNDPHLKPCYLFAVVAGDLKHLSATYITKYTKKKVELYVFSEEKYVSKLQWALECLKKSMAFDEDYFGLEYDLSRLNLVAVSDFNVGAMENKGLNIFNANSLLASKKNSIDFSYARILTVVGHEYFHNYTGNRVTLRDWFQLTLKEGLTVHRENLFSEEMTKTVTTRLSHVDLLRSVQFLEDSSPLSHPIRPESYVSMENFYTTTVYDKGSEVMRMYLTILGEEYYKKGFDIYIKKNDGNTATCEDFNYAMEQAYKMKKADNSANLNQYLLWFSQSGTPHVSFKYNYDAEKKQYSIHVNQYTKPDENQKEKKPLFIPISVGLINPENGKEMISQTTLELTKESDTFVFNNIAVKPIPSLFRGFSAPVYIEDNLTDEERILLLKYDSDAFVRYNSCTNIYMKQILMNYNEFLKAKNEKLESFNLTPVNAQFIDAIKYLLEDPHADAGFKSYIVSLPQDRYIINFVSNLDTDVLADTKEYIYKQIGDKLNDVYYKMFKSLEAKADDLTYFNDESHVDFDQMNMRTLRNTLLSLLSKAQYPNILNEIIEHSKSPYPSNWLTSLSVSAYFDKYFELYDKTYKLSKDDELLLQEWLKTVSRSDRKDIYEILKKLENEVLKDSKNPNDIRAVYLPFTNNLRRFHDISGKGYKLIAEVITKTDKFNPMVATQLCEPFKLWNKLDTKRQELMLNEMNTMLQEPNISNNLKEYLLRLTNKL
Description: P. falciparum M1AAP inhibitors, biochemical, fluorogenic H-Leu-NHMec substrate, 1536-well (AID 1445). On the set-up: species or system Plasmodium falciparum 3D7, 3D7.

A short description of assay [11]: cells. It counts as functional.
Assay [12] is described as follows: CEM21 cell cytotoxicity, dose response, cytotoxicity control, plate reader, dry powder (AID 687026). It counts as functional, cell-based.
The nature of assay [13]: HIV Env cell-cell fusion inhibitors, dose response, HIV entry, plate reader, dry powder (AID 687023). It is filed as functional, cell-based.
Assay [14] in a line: Late-stage results from the probe development effort to identify antagonists of arginine vasopressin receptor 1a (AVPR1a): fluorescence-based cell-based dose response OXTR inhibition counterscreen assay. It is filed as functional. (The purpose of a counterscreen is to sort out artefacts and off-target activity.)
The next assay deals with Vasopressin V1b receptor (Homo sapiens, UniProt P47901). Description: Late-stage results from the probe development effort to identify antagonists of arginine vasopressin receptor 1a (AVPR1a): fluorescence-based cell-based dose response AVPR1b inhibition counterscreen assay. It is filed as functional.
In the next assay the target is Vasopressin V2 receptor (Homo sapiens, UniProt P30518). Description: Late-stage results from the probe development effort to identify antagonists of arginine vasopressin receptor 1a (AVPR1a): fluorescence-based cell-based dose response AVPR2 inhibition counterscreen assay. It counts as functional.
A short description of assay [15]: Late-stage results from the probe development effort to identify antagonists of arginine vasopressin receptor 1a (AVPR1a): luminescence-based cell-based dose response counterscreen assay to determine cytotoxicity of the test compound. It is filed as functional.
Assay [16] in a line: Late-stage results from the probe development effort to identify antagonists of arginine vasopressin receptor 1a (AVPR1a): fluorescence-based cell-based dose response AVPR1a inhibition assay. It is filed as functional.
A short description of assay [17]: A549 cell cytotoxicity, dose response, cytotoxicity control, 24 h, CellTiter-Glo luminescence, cherry-picks (AID 1053115). It counts as functional, cell-based. The conditions noted are these: A549, 24 h.

In general, IC50 refers to the concentration needed to halve the response being measured. Usually EC50 stands for the concentration giving half of the maximal effect. In general, AC50 refers to the concentration giving half of the maximal activity seen. As usually defined, the CC50 is the concentration that lowers cell viability or growth by half.

“And” between values parts separate entries of the source, which are not always exact repeats. Equal values may be shown once. The source made the active and inactive calls.

Chain of Vasopressin V2 receptor (P30518 whole entry): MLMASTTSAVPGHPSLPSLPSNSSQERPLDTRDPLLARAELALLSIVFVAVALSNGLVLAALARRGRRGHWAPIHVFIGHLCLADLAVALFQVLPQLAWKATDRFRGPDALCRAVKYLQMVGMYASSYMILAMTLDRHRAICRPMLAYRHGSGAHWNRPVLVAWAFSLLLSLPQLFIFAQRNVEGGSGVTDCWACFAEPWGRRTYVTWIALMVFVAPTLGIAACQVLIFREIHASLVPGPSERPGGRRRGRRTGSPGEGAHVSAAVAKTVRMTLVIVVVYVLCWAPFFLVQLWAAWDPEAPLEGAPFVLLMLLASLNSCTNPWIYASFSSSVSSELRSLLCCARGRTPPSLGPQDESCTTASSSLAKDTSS
Chain of Nonstructural protein 1 (Q194T2 whole entry): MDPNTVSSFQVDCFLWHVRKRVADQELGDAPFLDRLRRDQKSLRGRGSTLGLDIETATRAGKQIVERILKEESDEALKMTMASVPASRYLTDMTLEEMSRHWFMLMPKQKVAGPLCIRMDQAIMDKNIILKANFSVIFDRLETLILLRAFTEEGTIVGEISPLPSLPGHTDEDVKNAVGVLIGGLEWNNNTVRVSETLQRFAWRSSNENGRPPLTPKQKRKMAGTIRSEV
Chain of Kallikrein-7 (P49862 whole entry): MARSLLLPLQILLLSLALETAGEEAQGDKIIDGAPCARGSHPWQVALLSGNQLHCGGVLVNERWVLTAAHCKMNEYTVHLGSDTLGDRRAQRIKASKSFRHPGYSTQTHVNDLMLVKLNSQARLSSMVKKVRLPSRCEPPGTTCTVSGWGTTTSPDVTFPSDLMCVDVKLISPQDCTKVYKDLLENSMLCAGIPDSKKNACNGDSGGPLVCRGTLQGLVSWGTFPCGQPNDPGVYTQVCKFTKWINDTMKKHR
Chain of Oxysterols receptor LXR-beta (P55055 whole entry, the tested form may be a part): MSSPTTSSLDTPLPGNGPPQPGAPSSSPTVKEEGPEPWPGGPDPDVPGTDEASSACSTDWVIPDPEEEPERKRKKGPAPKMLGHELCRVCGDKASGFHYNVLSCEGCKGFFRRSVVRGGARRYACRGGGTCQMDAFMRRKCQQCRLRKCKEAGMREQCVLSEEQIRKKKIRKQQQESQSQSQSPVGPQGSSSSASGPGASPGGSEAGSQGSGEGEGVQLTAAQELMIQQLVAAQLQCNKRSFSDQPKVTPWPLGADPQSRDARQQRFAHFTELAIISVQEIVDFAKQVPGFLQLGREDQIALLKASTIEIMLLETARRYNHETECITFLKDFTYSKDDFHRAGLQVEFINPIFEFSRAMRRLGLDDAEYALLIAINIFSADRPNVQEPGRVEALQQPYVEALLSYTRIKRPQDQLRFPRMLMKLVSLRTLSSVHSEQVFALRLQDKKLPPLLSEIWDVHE
Chain of Cytochrome P450 2D6 (P10635 whole entry): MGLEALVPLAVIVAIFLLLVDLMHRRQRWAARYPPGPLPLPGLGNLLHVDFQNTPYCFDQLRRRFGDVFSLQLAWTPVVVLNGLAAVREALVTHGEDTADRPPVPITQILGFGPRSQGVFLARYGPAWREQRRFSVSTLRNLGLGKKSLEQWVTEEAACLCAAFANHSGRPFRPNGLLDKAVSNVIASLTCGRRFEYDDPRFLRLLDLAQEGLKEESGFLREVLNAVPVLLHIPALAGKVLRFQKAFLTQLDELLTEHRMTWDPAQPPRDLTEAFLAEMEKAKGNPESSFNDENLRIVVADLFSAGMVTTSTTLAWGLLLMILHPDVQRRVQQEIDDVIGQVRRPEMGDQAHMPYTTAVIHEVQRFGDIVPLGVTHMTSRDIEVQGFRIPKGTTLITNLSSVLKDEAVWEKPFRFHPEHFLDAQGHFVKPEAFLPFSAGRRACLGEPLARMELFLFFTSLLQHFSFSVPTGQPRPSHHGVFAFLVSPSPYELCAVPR
Chain of Vasopressin V1b receptor (P47901 whole entry): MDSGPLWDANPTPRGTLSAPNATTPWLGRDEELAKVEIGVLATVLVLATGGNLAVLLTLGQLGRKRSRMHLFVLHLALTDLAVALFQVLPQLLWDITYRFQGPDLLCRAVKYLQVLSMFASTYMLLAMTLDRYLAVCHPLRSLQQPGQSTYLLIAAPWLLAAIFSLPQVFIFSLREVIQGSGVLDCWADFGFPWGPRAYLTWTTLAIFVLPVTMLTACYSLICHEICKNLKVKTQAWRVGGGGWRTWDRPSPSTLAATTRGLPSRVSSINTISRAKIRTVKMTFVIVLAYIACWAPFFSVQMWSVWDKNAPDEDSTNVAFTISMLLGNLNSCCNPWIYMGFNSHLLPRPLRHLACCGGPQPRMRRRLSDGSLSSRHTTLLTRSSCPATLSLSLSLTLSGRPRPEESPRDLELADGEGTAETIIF

In the case of `O=[N+]([O-])c1ccccc1N/N=C/c1c[nH]c2ccccc12`, the IC50 was 6.32 µM (active) in [1]; 3.36 µM (active) in assay [2]; 5.73 µM (active) in assay [3]; 2.26 µM (active) in assay [5]; > 100 µM (inactive) in [6]; 17.4 µM (active) at Caspase-3 [7]. The IC50 was > 100 µM (inactive) in assay [8], 32.8 µM (active) on Caspase-3 [10] and 19 µM (active) on Nonstructural protein 1. Moreover, the EC50 (in the assay “cells [4]”; in assay [9]) was > 67.5 µM (inactive) throughout. Further, the half-maximal activity concentration (AC50) on Cytochrome P450 2D6 is 20 µM (inconclusive).
Consider `O=C(Oc1c(-c2ccco2)oc2ccccc2c1=O)c1cccnc1`, for which, on Kallikrein-7, the EC50 is 19.6 µM (inactive). In addition, the half-inhibitory concentration (IC50) at Aminopeptidase N is 129 µM (active); in “cells [11]” it was 20.5 µM (active).
`COc1ccc(S(=O)(=O)NCc2ccncc2)cc1OC`: the AC50 in assay [12] is > 70 µM (inactive); in assay [13], 25.4 µM (active) and 32 µM (active).
Consider `O=C(C1CCN(c2ccc(Cl)cn2)CC1)N(CC1CC1)c1ccc(Cl)cc1`, for which the IC50 in [14] was > 50 µM (inactive); at Vasopressin V1b receptor, > 50 µM (active); on Vasopressin V2 receptor it was > 50 µM (inactive); in assay [16] it was 0.04 µM (active). In addition, in assay [15], the CC50 is > 25 µM (inactive).
As for `CCCNC(=O)N(C)C[C@@H]1Oc2ncc(C#CC3CCCCC3)cc2C(=O)N([C@H](C)CO)C[C@@H]1C`, in assay [17], the concentration at half-maximal activity (AC50) was 59.7 µM (active).

(Values after ChEMBL document CHEMBL1201862, “PubChem BioAssay data set” (2004).)
